Source: patent US20260223850A1, “SUBSTITUTED PYRROLIDONE COMPOUND, PREPARATION METHOD THEREFOR, COMPOSITION AND APPLICATION THEREOF” (QINGDAO KINGAGROOT CHEMICAL COMPOUND CO., LTD., priority 2023, published 2026)

Tests used:
Format in all cases: in vivo
Echinochloa phyllopogon = assay: Seedling stage sealing experiment for water-seeding; details: 120 g a.i./ha, 15 days, fresh weight control rate
Outline: (§1)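 Seeds sown on soil in pots kept moist in water-filled boxes, then sprayed with acetone/water compound solution at 120, 60, 30 and 15 g a.i./ha, in triplicate. Effect scored after 15 days in greenhouse as 0–9 levels of fresh-weight growth control, averaged.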

Digitaria sanguinalis = assay: as above; details: 120 g a.i./ha, spray, seedling stage sealing for water-seeding, 15 days, fresh weight control rate
Outline: as §1

Echinochloa crusgalli = assay: as above; details: 120 g a.i./ha, 15 days, fresh weight control rate
Huaidao (rice cultivar) = assay: Seedling stage sealing experiment for water-seeding (crop safety); details: 120 g a.i./ha, seedling stage sealing, 15 days, fresh weight control rate
Outline: as §1

Leptochloa chinensis = assay: Seedling stage sealing experiment for water-seeding; details: 120 g a.i./ha, 15 days, fresh weight control rate
Outline: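 Seeds sown in soil-filled bowls kept moist in water-filled boxes; compound in acetone diluted with water and spray-applied at 120, 60, 30 and 15 g a.i./ha, triplicate. After 15 days in greenhouse, fresh-weight growth control scored on a 0–9 scale (9 = dead, 0 = no effect), averaged.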

[1] = spray, seedling stage sealing for water-seeding

Row | SMILES | Echinochloa phyllopogon activity level (growth control rate) (Echinochloa phyllopogon; [1]) | Digitaria sanguinalis activity level (growth control rate) (Digitaria sanguinalis) | Echinochloa crusgalli activity level (growth control rate) (Echinochloa crusgalli; [1]) | Huaidao (rice cultivar) plant damage level (Huaidao (rice cultivar)) | Leptochloa chinensis activity level (growth control rate) (Leptochloa chinensis) | Echinochloa phyllopogon activity level (growth control rate) (Echinochloa phyllopogon; seedling stage sealing) | Echinochloa crusgalli activity level (growth control rate) (Echinochloa crusgalli; seedling stage sealing)
1 | COCn1ncc(NC(=O)[C@H]2C(=O)N(C)C[C@@H]2c2cc(C)cc(C)c2)c1C1CC1 [549′] | 9 | 9 | 9 | – | – | – | –
2 | Cc1cccc([C@H]2CN(C)C(=O)[C@@H]2C(=O)Nc2cnn(C)c2Cl)c1 [17′] | – | – | – | 0 | 9 | 6 (Level 6: growth control rate greater than or equal to 70% and less than 80%) | 9
3 | CN1CC(c2ccc(F)c(C(F)(F)F)c2)C(C(=O)Nc2cnn(C)c2Cl)C1=O (stereo not drawn) [Compound 54] | – | – | – | 0 | 9 | 9 | 9
4 | CN1CC(c2ccccc2)C(C(=O)Nc2cnn(C)c2Cl)C1=O (stereo not drawn) [Compound 121] | – | – | – | 0 | 6 (Level 6: growth control rate greater than or equal to 70% and less than 80%) | 9 | 9
5 | COc1cc(C2CN(C)C(=O)C2C(=O)Nc2cnn(C)c2Cl)ccc1C (stereo not drawn) [Compound 321] | – | – | – | – | 6 (Level 6: growth control rate greater than or equal to 70% and less than 80%) | 5 (Level 5: growth control rate greater than or equal to 50% and less than 70%) | 5 (Level 5: growth control rate greater than or equal to 50% and less than 70%)
6 | CC(C)c1cccc([C@H]2CN(C)C(=O)[C@@H]2C(=O)Nc2cnn(C)c2Cl)c1 [20′] | – | – | – | – | 9 | 8 (Level 8: growth control rate greater than or equal to 90% and less than 100%) | 9
7 | COc1cc([C@H]2CN(C)C(=O)[C@@H]2C(=O)Nc2cnn(C)c2Cl)ccc1C [321′] | – | – | – | – | 7 (Level 7: growth control rate greater than or equal to 80% and less than 90%) | 6 (Level 6: growth control rate greater than or equal to 70% and less than 80%) | 9
8 | Cc1cccc([C@H]2CN(C)C(=O)[C@@H]2C(=O)Nc2cnn(C(C)C)c2Cl)c1 [130′] | – | – | – | – | 9 | 9 | 9
9 | CC(C)n1ncc(NC(=O)C2C(=O)N(C)CC2c2cccc(C(F)(F)F)c2)c1Cl (stereo not drawn) [Compound 97] | – | – | – | – | 9 | 7 (Level 7: growth control rate greater than or equal to 80% and less than 90%) | 9
10 | CN1C[C@H](c2ccc3ccccc3c2)[C@@H](C(=O)Nc2cnn(C)c2Cl)C1=O [353′] | – | – | – | – | 9 | 7 (Level 7: growth control rate greater than or equal to 80% and less than 90%) | 9
11 | Cc1cccc([C@H]2CN(C)C(=O)[C@@H]2C(=O)Nc2c(O)nn(C)c2F)c1 [147′] | – | – | – | – | 9 | 8 (Level 8: growth control rate greater than or equal to 90% and less than 100%) | 9
12 | CN1C[C@H](c2cccc(C(F)(F)F)c2)[C@@H](C(=O)Nc2cnn(CCF)c2Cl)C1=O [98′] | – | – | – | – | 9 | 9 | 9
13 | COc1cc([C@H]2CN(C)C(=O)[C@@H]2C(=O)Nc2cnn(C)c2Cl)cc(C(F)(F)F)c1 [75′] | – | – | – | – | 9 | 6 (Level 6: growth control rate greater than or equal to 70% and less than 80%) | 9
14 | C=Cc1c(NC(=O)[C@H]2C(=O)N(C)C[C@@H]2c2cccc(C(F)(F)F)c2)cnn1C [203′] | – | – | – | – | 9 | 9 | 9
15 | CN1C[C@H](c2cccc(C(F)(F)F)c2)[C@@H](C(=O)Nc2cnn(C)c2C2CC2)C1=O [195′] | – | – | – | – | 9 | 7 (Level 7: growth control rate greater than or equal to 80% and less than 90%) | 9
16 | CC(C)c1c(NC(=O)[C@H]2C(=O)N(C)C[C@@H]2c2cccc(C(F)(F)F)c2)cnn1C [194′] | – | – | – | – | 6 (Level 6: growth control rate greater than or equal to 70% and less than 80%) | 5 (Level 5: growth control rate greater than or equal to 50% and less than 70%) | 5 (Level 5: growth control rate greater than or equal to 50% and less than 70%)
17 | CN1C[C@H](c2cccc(OC(F)(F)C(F)F)c2)[C@@H](C(=O)Nc2cnn(C)c2Cl)C1=O [231′] | – | – | – | – | 9 | 6 (Level 6: growth control rate greater than or equal to 70% and less than 80%) | 9
18 | CCOc1cc(F)cc([C@H]2CN(C)C(=O)[C@@H]2C(=O)Nc2cnn(C)c2Cl)c1 [299′] | – | – | – | – | 9 | 9 | 9
19 | CN1CC(c2cccc(C(F)(F)F)c2)C(C(=O)Nc2cnn(C3CC3)c2Cl)C1=O (stereo not drawn) [Compound 164] | – | – | – | – | 9 | 6 (Level 6: growth control rate greater than or equal to 70% and less than 80%) | 7 (Level 7: growth control rate greater than or equal to 80% and less than 90%)
20 | Cc1cc(C)cc([C@H]2CN(C)C(=O)[C@@H]2C(=O)Nc2cnn(C(F)F)c2Cl)c1 [269′] | – | – | – | – | 9 | 9 | 9
21 | CN1CC(c2cc(F)cc(F)c2)C(C(=O)Nc2cnn(C)c2Cl)C1=O (stereo not drawn) [Compound 115] | – | – | – | – | 6 (Level 6: growth control rate greater than or equal to 70% and less than 80%) | 6 (Level 6: growth control rate greater than or equal to 70% and less than 80%) | 9
22 | COc1cc(C)cc([C@H]2CN(C)C(=O)[C@@H]2C(=O)Nc2cnn(C)c2Cl)c1 [300′] | – | – | – | – | 9 | 7 (Level 7: growth control rate greater than or equal to 80% and less than 90%) | 9
23 | Cc1ccc(C2CN(C)C(=O)C2C(=O)Nc2cnn(C)c2Cl)cc1C (stereo not drawn) [Compound 314] | – | – | – | – | 9 | 6 (Level 6: growth control rate greater than or equal to 70% and less than 80%) | 7 (Level 7: growth control rate greater than or equal to 80% and less than 90%)
24 | CC(C)Oc1cc([C@H]2CN(C)C(=O)[C@@H]2C(=O)Nc2cnn(C)c2Cl)ccc1F [318′] | – | – | – | – | 8 (Level 8: growth control rate greater than or equal to 90% and less than 100%) | 8 (Level 8: growth control rate greater than or equal to 90% and less than 100%) | 9
25 | Cc1cc(C)cc(C2CN(C)C(=O)C2C(=O)Nc2c(O)nn(C)c2F)c1 (stereo not drawn) [Compound 286] | – | – | – | – | 9 | 7 (Level 7: growth control rate greater than or equal to 80% and less than 90%) | 9
26 | C=CCc1cccc(C2CN(C)C(=O)C2C(=O)Nc2cnn(C)c2Cl)c1 (stereo not drawn) [Compound 24] | – | – | – | – | 9 | 8 (Level 8: growth control rate greater than or equal to 90% and less than 100%) | 9
27 | COc1cc(Cl)cc([C@H]2CN(C)C(=O)[C@@H]2C(=O)Nc2cnn(C)c2Cl)c1 [297′] | – | – | – | – | 9 | 6 (Level 6: growth control rate greater than or equal to 70% and less than 80%) | 9
28 | CN1C[C@H](c2cccc(C(F)F)c2)[C@@H](C(=O)Nc2cnn(C)c2Cl)C1=O [154′] | – | – | – | – | 9 | 8 (Level 8: growth control rate greater than or equal to 90% and less than 100%) | 9
29 | CN1CC(c2cccc(Cl)c2)C(C(=O)Nc2cnn(C)c2Cl)C1=O (stereo not drawn) [Compound 16] | – | – | – | – | 9 | 5 (Level 5: growth control rate greater than or equal to 50% and less than 70%) | 6 (Level 6: growth control rate greater than or equal to 70% and less than 80%)
30 | CN1C[C@H](c2cccc(C(F)(F)F)c2)[C@@H](C(=O)Nc2cnn(C(F)F)c2C2CC2)C1=O [196′] | – | – | – | – | 9 | 9 | 9
